{
  "source": "patent US20240140949A1",
  "about": "“ANTI-CANCER PHARMACEUTICAL COMPOSITION FOR TARGETING HEAT SHOCK PROTEIN 70, CONTAINING INDOLOQUINAZOLIDINE ALKALOID” (SEOUL NATIONAL UNIVERSITY R & DB FOUNDATION, priority 2021, published 2024)",
  "key": {"[1]": {"test_system": "tumors derived from lung cancer patients", "assay": "Lung cancer patient-derived tumor xenograft growth in NOD/SCID mice", "format": "in vivo, mouse", "conditions": "20 mg/kg orally six times a week, vs control group (FIG. 7)", "description": "(§1) H460 cells (5×10^6 cells/spot) or lung cancer patient-derived tumors were implanted into the flank of 6-week-old NOD/SCID mice, or LLC-Luc cells (5×10^5 cells/spot) were implanted into the flank of 8-week-old C57BL/6 mice to form tumors. When the tumor volume reached 50-100 mm^3, the mice were divided into control and experimental groups (with at least 6 mice assigned to each group), and the control group was administered with vehicle (10% DMSO and 40% PEG400 solution prepared in sterile distilled water), while the experimental group was administered with EV507 (20 mg/kg) six times a week orally. The major and minor axes of the tumor were measured, and the tumor size was measured at least 3-4 times a week, and the body weight was measured at least once a week to evaluate the toxicity of the drug. Also, the survival of C57BL/6 mice implanted with LLC-Luc cells was monitored to determine the survival curve. The tumor volume was calculated as (width)^2× length×0.5."}, "[2]": {"test_system": "cancer cell lines of various origins", "assay": "Anchorage-dependent colony formation in cancer cell lines of various origins", "format": "cell-based, human", "conditions": "50 nM, 2 weeks (FIG. 3)", "description": "Human lung cancer cell lines (H1299, H460, A549, H226B, and PC9), breast cancer cell line (MDA-MB-231), liver cancer cell line (Hep3B), kidney cancer cell line (786-0), prostate cancer cell lines (DU145 and PC-3), and mouse lung cancer cell line (Lewis Lung Carcinoma, LLC) were purchased from ATCC (American Type Culture Collection) or obtained from Dr. John V. Heymach of MD Anderson Cancer Center, USA. The human head and neck cancer cell line (UMSCC38) was obtained from Dr. Jeffrey N. Myers (MD Anderson Cancer Center, USA). Human colon cancer cell lines (HCT116 and HT-29) and glioblastoma cell line (U87MG) were obtained from Professor Sang Kook Lee (Seoul National University College of Pharmacy). The human kidney cancer cell line (Caki-1), and gastric cancer cell line (SNU-638) were purchased from the Korean Cell Line Bank. […]\nCancer cell lines were seeded in a 24-well or 6-well plate at 100-250 cells per well and allowed to attach, followed by treatment with drugs diluted in media and cultured for 2-3 weeks. Formed colonies were stained with crystal violet and counted. The drug's colony formation inhibitory effect was calculated as the percentage of colony number change in the drug-treated group compared to the vehicle (DMSO)-treated control group."}, "[3]": {"test_system": "cancer cells derived from various origins", "assay": "Cell viability (MTT or crystal violet assay) in cancer cell lines of various origins", "format": "cell-based, human", "conditions": "various concentrations, 3 days, cancer cells of various origins (FIG. 2)", "description": "Human lung cancer cell lines (H1299, H460, A549, H226B, and PC9), breast cancer cell line (MDA-MB-231), liver cancer cell line (Hep3B), kidney cancer cell line (786-0), prostate cancer cell lines (DU145 and PC-3), and mouse lung cancer cell line (Lewis Lung Carcinoma, LLC) were purchased from ATCC (American Type Culture Collection) or obtained from Dr. John V. Heymach of MD Anderson Cancer Center, USA. The human head and neck cancer cell line (UMSCC38) was obtained from Dr. Jeffrey N. Myers (MD Anderson Cancer Center, USA). […]\nThe cancer cell lines were seeded in a 96-well plate at a density of 2×10^3 cells per well and cultured for 24 hours to allow the cells to attach. The cells were then treated with diluted drugs in media for 3 days and cell viability was assessed using MTT assay or crystal violet (CB) assay. For the MTT assay, MTT solution dissolved in PBS was added to achieve a final concentration of 500 μg/mL and incubated for 2-4 hours, after which the medium was removed and the formed formazan was dissolved in 100% DMSO, followed by measuring the absorbance at 570 nm. For the CB assay, the cultured cells were fixed with 100% methanol, stained with a 0.025% crystal violet solution, dissolved in 1% SDS solution, and the absorbance was measured at 570 nm. […]"}, "[4]": {"biological_target": "T1, Hsp70 protein (full length, N-terminal domain) (Homo sapiens, UniProt P0DMV8)", "T1 construct": "35 μg of Hsp70 full length, Hsp70 N-terminal, Hsp70 C-terminal proteins were treated with vehicle (DMSO)", "T1 sequence (P0DMV8 2-641)": "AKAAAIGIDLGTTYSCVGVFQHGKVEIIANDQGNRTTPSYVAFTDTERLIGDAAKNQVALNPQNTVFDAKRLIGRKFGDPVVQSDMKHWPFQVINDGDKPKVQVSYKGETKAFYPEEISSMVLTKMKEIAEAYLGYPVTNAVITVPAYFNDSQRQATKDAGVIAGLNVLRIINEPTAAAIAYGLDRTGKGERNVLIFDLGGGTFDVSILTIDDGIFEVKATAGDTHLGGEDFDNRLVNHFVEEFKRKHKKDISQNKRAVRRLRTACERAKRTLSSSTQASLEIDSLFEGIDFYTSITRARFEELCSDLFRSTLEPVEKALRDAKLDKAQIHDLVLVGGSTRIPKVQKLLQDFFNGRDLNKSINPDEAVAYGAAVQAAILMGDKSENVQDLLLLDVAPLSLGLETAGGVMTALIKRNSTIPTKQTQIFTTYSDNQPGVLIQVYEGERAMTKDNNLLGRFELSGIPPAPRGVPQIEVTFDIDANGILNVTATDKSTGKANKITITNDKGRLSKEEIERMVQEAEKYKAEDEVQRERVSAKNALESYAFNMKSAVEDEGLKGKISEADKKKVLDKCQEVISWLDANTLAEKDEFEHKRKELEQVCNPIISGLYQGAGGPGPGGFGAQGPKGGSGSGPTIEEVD", "assay": "Drug affinity responsive target stability (DARTS)", "format": "binding", "conditions": "up to 10 μM, proteinase K (FIG. 6)", "description": "35 μg of Hsp70 full length, Hsp70 N-terminal, Hsp70 C-terminal proteins were treated with vehicle (DMSO) or up to 10 μM of EV507 (final DMSO concentration: 1%) at 4° C. for 30 minutes, followed by a treatment with proteinase K (proteinase K:protein=1:100) at room temperature for 15 minutes. The reaction was terminated by adding a 5×SDS-PAGE sample buffer and boiling at 95° C. for 5 minutes, after which electrophoresis was performed with 8% SDS-PAGE. The proteins were transferred to a PVDF membrane, and the Western blot analysis method described above was performed."}, "H460 xenograft tumors": {"test_system": "H460 xenograft tumors", "assay": "H460 xenograft tumor growth in NOD/SCID mice", "format": "in vivo, mouse", "conditions": "20 mg/kg orally six times a week, vs control group (FIG. 7)", "description": "as §1"}, "cancer cell": {"test_system": "cancer cell", "assay": "Cancer cell survival inhibitory activity (crystal violet assay)", "format": "cell-based", "conditions": "crystal violet assay (FIG. 19)", "description": "The cancer cell lines were seeded in a 96-well plate at a density of 2×10^3 cells per well and cultured for 24 hours to allow the cells to attach. The cells were then treated with diluted drugs in media for 3 days and cell viability was assessed using MTT assay or crystal violet (CB) assay. For the MTT assay, MTT solution dissolved in PBS was added to achieve a final concentration of 500 μg/mL and incubated for 2-4 hours, after which the medium was removed and the formed formazan was dissolved in 100% DMSO, followed by measuring the absorbance at 570 nm. For the CB assay, the cultured cells were fixed with 100% methanol, stained with a 0.025% crystal violet solution, dissolved in 1% SDS solution, and the absorbance was measured at 570 nm. Cell viability was calculated as the percentage of absorbance change in drug-treated group compared to vehicle (DMSO) treated control group."}},
  "data": [
    {"smiles": "C=CCN1c2ccccc2C(=O)N2CCc3c([nH]c4ccc(O)cc34)C21", "note": "(stereo not drawn) [EV507]", "values": [
      {"measurement": "tumor growth", "setting": "[1]", "result": "significantly inhibited"},
      {"measurement": "formation of colonies under anchorage-dependent conditions", "setting": "[2]", "result": "significantly inhibited"},
      {"measurement": "anti-cancer survival inhibition efficacy", "setting": "[3]", "result": "concentration-dependent anti-cancer survival inhibition efficacy"},
      {"measurement": "binding to Hsp70 protein, particularly the N-terminal domain", "setting": "[4]", "result": "binds"},
      {"measurement": "tumor growth", "setting": "H460 xenograft tumors", "result": "significantly inhibited"},
      {"measurement": "cancer cell survival inhibitory activity", "setting": "cancer cell", "result": "excellent"}
    ]}
  ]
}
